Patent US20240174618A1, “SUBSTITUTED (2-HETEROARYLOXYPHENYL)SULFONATES, SALTS THEREOF AND THEIR USE AS HERBICIDAL AGENTS” (Bayer Aktiengesellschaft, priority 2021, published 2024)

Assays:
Type in all cases: in vivo
[1] = test system: Abutilon theophrasti (ABUTH); experiment: A. Herbicidal pre-emergence efficacy, ABUTH; settings: scored visually after about 3 weeks vs untreated controls
Summary of the method: (§1)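 Pre-emergence soil-surface spray in sandy loam pots, WP/EC in water plus 0.5% additive, 600 L/ha. Visual % damage rating after about 3 weeks in greenhouse vs. untreated; 0% = control-like, 100% = dead plants. Rates up to 1280 g/ha.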

Kochia scoparia (KCHSC) = experiment: A. Herbicidal pre-emergence efficacy, KCHSC
Summary of the method: as §1

Veronica persica (VERPE) [2] = experiment: A. Herbicidal pre-emergence efficacy, VERPE; settings: for Pre-emergence efficacy against VERPE: dosage 80 g/ha
Summary of the method: as §1

Setaria viridis (SETVI) = experiment: B. Herbicidal post-emergence efficacy, SETVI
Summary of the method: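 First, seeds were sown in sandy loam and grown 2 to 3 weeks under controlled greenhouse conditions. Next, foliage at the one-leaf stage received the formulated compound in water with 0.5% additive (600 L/ha, 1280 g/ha or less). Finally, damage was rated visually after about 3 weeks against untreated plants.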

Viola tricolor (VIOTR) = experiment: E. Herbicidal post-emergence efficacy, VIOTR
Summary of the method: (§2)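 Greenhouse post-emergence spray, one-leaf stage (2–3 wk after sowing, sandy loam); WP/EC formulation, aqueous + 0.5% additive, 600 l/ha water; rates 320 g/ha or less. Visual rating ~3 wk later vs untreated; 0% = control-like, 100% = dead.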

[3] = test system: Alopecurus myosuroides (ALOMY); experiment: C. Herbicidal pre-emergence efficacy, ALOMY; settings: 320 g/ha, scored after about 3 weeks
Source text: Seeds of monocotyledonous and dicotyledonous weed plants and crop plants were placed in plastic or organic planting pots and covered with soil. The compounds of the invention, formulated in the form of wettable powders (WP) or as emulsion concentrates (EC), were then applied to the surface of the covering soil as aqueous suspension or emulsion with addition of 0.5% additive at a water application rate equivalent to 600 l/ha (converted). After the treatment, the pots were placed in a greenhouse and kept under good growth conditions for the test plants. After about 3 weeks, the efficacy of the preparations was scored visually in comparison with untreated controls as percentages. For example, • 100% efficacy=plants have died, • 0% efficacy=like untreated control plants.
Tables C1a to C14b below show the effects of selected compounds of the general formula (I) according to table 1 on various harmful plants at an application rate corresponding to 320 g/ha or less, which were obtained by the experimental procedure mentioned above.

[4] = test system: Echinochloa crus-galli (ECHCG); experiment: E. Herbicidal post-emergence efficacy, ECHCG
Summary of the method: as §2

Veronica persica (VERPE) [5] = experiment: C. Herbicidal pre-emergence efficacy, VERPE; settings: scored after about 3 weeks
Summary of the method: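 Pre-emergence test: formulated compounds sprayed as aqueous suspension or emulsion with 0.5% additive at 600 l/ha onto soil covering sown seeds, at rates corresponding to 320 g/ha or less. After about 3 weeks in greenhouse, efficacy scored visually as percent versus untreated controls (100% = plants dead).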

[6] = pre-emergence, dosage 1280 g/ha

Compound	Pre-emergence efficacy against ABUTH ([1]; 320 g/ha) [%]	Pre-emergence efficacy against ABUTH ([1]; 1280 g/ha) [%]	Pre-emergence efficacy against KCHSC (Kochia scoparia (KCHSC); 80 g/ha, scored visually after about 3 weeks vs untreated controls) [%]	Pre-emergence efficacy against KCHSC (Kochia scoparia (KCHSC); pre-emergence, dosage 320 g/ha) [%]	Pre-emergence efficacy against KCHSC (Kochia scoparia (KCHSC); [6]) [%]	Pre-emergence efficacy against VERPE in % (Veronica persica (VERPE) [2]; 320 g/ha) [%]	Pre-emergence efficacy against VERPE in % (Veronica persica (VERPE) [2]; 1280 g/ha) [%]	Post-emergence efficacy against SETVI (Setaria viridis (SETVI); 1280 g/ha) [%]	Post-emergence efficacy against VIOTR in % (Viola tricolor (VIOTR); application rate 80 g/ha) [%]	Post-emergence efficacy against VIOTR in % (Viola tricolor (VIOTR); application rate 320 g/ha) [%]	Pre-emergence efficacy against ABUTH ([1]; 80 g/ha) [%]	Pre-emergence efficacy against ALOMY [3] [%]	Pre-emergence efficacy against VERPE (Veronica persica (VERPE) [2]) [%]	Post-emergence efficacy against ECHCG in % ([4]; application rate 320 g/ha) [%]	Post-emergence efficacy against SETVI (Setaria viridis (SETVI); 320 g/ha) [%]	Pre-emergence efficacy against VERPE (Veronica persica (VERPE) [5]; 320 g/ha) [%]	Post-emergence efficacy against ECHCG in % ([4]; application rate 80 g/ha) [%]	Pre-emergence efficacy against VERPE (Veronica persica (VERPE) [5]; 80 g/ha) [%]
O=S(=O)(CCC(F)(F)F)Oc1c(Br)cccc1Oc1ncc(Cl)cn1 [Example I-31]	90	90	90	100	100	100	100	90										
C=CCS(=O)(=O)Oc1ccccc1Oc1ncc(Cl)cn1 [Example I-36]	100	100		90	100		100	90										
O=S(=O)(CCC(F)(F)F)Oc1c(Br)cccc1Oc1ncc(F)cn1 [Example I-43]	100	100			100	100	100		90	100								
Cc1cccc(Oc2ncc(F)cn2)c1OS(=O)(=O)CCC(F)(F)F [Example I-45]	100	100		100	100	100	100		90	100	100	100						
Cc1cccc(Oc2ncc(F)cn2)c1OS(=O)(=O)CCCC(F)(F)F [Example I-46]	100	100			90	90	100		90	100	90	100	90	100				
O=S(=O)(CCC1CC1)Oc1c(F)cccc1Oc1ncc(Cl)cn1 [Example I-55]		100		100	100	100	100	90		80				100	90	100	90	
O=S(=O)(CCC(F)=C(F)F)Oc1c(Cl)cccc1Oc1ncc(Cl)cn1 [Example I-73]		90		90	90		100	90	90	100						80		
Cc1cccc(Oc2ncc(Cl)cn2)c1OS(=O)(=O)CC1CC(F)(F)C1 [Example I-74]		90		90	100	100	100	100	100	100			90	100		100		80
